Results from EP2229935A1, “Peptide derivatives or pharmaceutically acceptable salts thereof, method for producing the same, use of said derivatives and pharmaceutical composition” (Nebolsin, Vladimir Evgenievich, priority 1997, dated 1999).
Marks after values point to notes of the source that are not given here.

What was measured:
α-interferon = α-interferon production by splenocytes after stress; assay type: in vivo, Balb male mice; conditions: 50 µg/kg orally
Method: (§1) Experiments were carried out on inbred Balb male mice with initial body mass 16-18 g. Each group included 12 animals. The model of swimming in warm water for 20 minutes was used to develop emotional-locomotory stress in animals. Stress development was estimated by the activity of natural killer lymphocytes (NK cells) and by functioning of the interferon system [Sukhikh T.G., Nossik N.N., Parshina O.V., Van'ko L.V., Meerson F.Z., Yershov F.I. Relationship between the natural cellular cytotoxicity system and the interferon system in immobilization stress. Bulletin of Experimental Biology (1984), ? , pp.593-595].
(§2) In studying interferon reaction of mouse splenocytes spleen cells were placed into incubation medium (the RPMI-1640 medium + 10% fetal calf serum), their concentration was brought to 1-3 x 10^8 cells/ml and they were incubated at 37°C for 24 hours. Newcasle disease virus (α-interferon induction) and FGA mitogen (γ-interferon induction) were used as intereferon inducers [Nossik N.N., Bopegamage S.A., Yershov F.I. Properties of interferons produced by different cell populations. Acta microbiologica Hungarica (1988), Vol. 35, Iss. 4, pp. 397-403].
(§3) Animals were divided into four groups, each including 36 mice. • Group 1 - intact animals not subjected to stress and given normal saline (NS). • Group 2 - animals which ere subjected to stress effect and given NS. • Group 3 - animals which were subjected to stress effect and administered compound III. • Group 4 - animals which were subjected to stress effect and administered compound XLIV.
(§4) Activity of NK-cells and interferon state were dynamically determined in 4 hours following stress, in 24 hours and then by days 5, 7 and 10.

[1] = system: Lewis pulmonary carcinoma (LLC); assay: Lewis pulmonary carcinoma spontaneous metastasizing, oral administration; assay type: in vivo; conditions: BDF1 female mice with LLC, oral 24 days; for Mean number of metastases: day 25
Method: Each group included 15 animals. 0.3 ml of LLC tumor tissue suspension was intramuscularly injected to mice. Henks solution was used as a solvent. […] Moscow (1992) 13 pp.]. […]

γ-interferon = γ-interferon production by splenocytes after stress; assay type: in vivo, Balb male mice; conditions: 50 µg/kg orally
Method: as §1, §2, §3, §4

mongrel male mice = assay: Passive cutaneous anaphylaxis reaction; assay type: in vivo; conditions: PCA, oral 3 days
Method: Experiments were carried out on mongrel male mice with initial body mass 22-24 g. Each group included 10 animals. Sensibilization of animals was accomplished by intradermal injection of 20-30 µl of the serum of mice obtained from preliminaryly immunized animals comprising reagent antibodies against chicken ovalbumin (OVA). […] In 48 hours after sensibilzation an anaphylaxis-provoking OVA dose (1 mg and 0,2 ml Evans blue in 0.2 ml normal saline) were intravenously injected to mice. Passive cutaneous anaphylaxis reaction intensity (PCA) was determined in 30 minutes by the size (area) of a blue spot on the internal skin surface in the site of reagent anibodies' administration. Spot size was measured in two mutually perpendicular directions and the result was expressed in mm^2.

NK-cells = assay: Activity of NK-cells after swimming stress (H^3-uridine release from YAC-1); assay type: in vivo, Balb male mice; conditions: 50 µg/kg orally four times
Method: as §1
Activity of NK-cells was determined in the test of H^3-uridine release from the labelled target cells YAC-1 (mouse cellular lymphoma maintained by passages in vitro in suspension in the RPMI-1640 medium with 10% fetal serum). H^3-uridine (3-5 µC/cells/ml) was introduced into cellular suspension at concentration 1 miilion cells/ml on the 60th minute while shaking with 15 minute inerval and subsequent washing with the medium.
Splenocytes of mice which were obtained using the published method [Nossik N.N., Bopegamage S.A., Yershov F.I. Properties of interferons produced by different cell populations. Acta microbiologica Hungarica (1988), Vol. 35, Iss. 4, pp. 397-403] served as the source of NK-cells.
as §3, §4

Male guinea pigs = assay: Antigen-induced bronchospasm in actively sensitized guinea pigs; assay type: in vivo; conditions: sensitized guinea pigs
Method: Antiasthmatic effect of the test compounds was studied using an antigen-induced bronchospasm model in actively sensitized guinea pigs according to the Andersson method [Andersson P. Antigen induced bronchial anaphylaxis in actively sensitized guinea pig. Allergy (1980), Vol. 35, pp. 65-71].
Male guinea pigs were sensitized with intramuscular injection of 0.5 ml suspension comprising 20 micrograms ovalbumin (OVA, manufactured by the Sigma company [grade III]) and 100 mg Al(OH)3 per one animal. Anaphylaxis-provoking dose 150-200 µg/kg OVA in 0.1 ml normal saline was intravenously (v. jugularis) injected on day 26 after sensibilization. Bronchospasm induction and measuring external respiration parameters were carried out according to the method described in Yu-Hong L., Barnes P., Rogers D. Inhibition of neurogenic plasma exudation and bronchoconstriction by a K+ channel activator, BRL 38227, in guinea pig airways in vivo. Europ. J. Pharmacol. (?), Vol. 239, pp.257-259]. Measurement of respiration parameters was performed using a transducer (Ugo Basel, model 7020), connected with a cannula and a recorder (Millichrome), recording breathing amplitude. […] Efficacy of compounds was determined by change in bronchospasm value.
Inthal was used as a reference drug that was administered to animals at a dose 5 µg/kg according to the same dosage regimen as the test substances were administered. The control group of animals received equivalent amount of normal saline.
Groups of animals: group 1 - control; group 2 - animals given Inthal; group 3 - animals given oral compound XLIV; group IV - animals given oral compound III; group 5 - animals given intratracheal compound III; group 6 - animals given compound XLIX, group 7 - animals given compound XXXI, group 8 - animals given compound XLVI; group 9 - animals given compound VI, group 10 - animals given compound XLVIII.

[2] = 50 µg/kg per os, 72, 48 and 18 hours prior to bronchospasm induction

| Compound | α-interferon, U/ml (α-interferon; 0 days after stress) [U/ml] | α-interferon, U/ml (α-interferon; 0.16 days after stress) [U/ml] | α-interferon, U/ml (α-interferon; 1 day after stress) [U/ml] | α-interferon, U/ml (α-interferon; 5 days after stress) [U/ml] | α-interferon, U/ml (α-interferon; 7 days after stress) [U/ml] | α-interferon, U/ml (α-interferon; 10 days after stress) [U/ml] | Mean number of metastases ([1]; 50 µg/kg) | Mean number of metastases ([1]; 500 µg/kg) | Metastasizing inhibition percent ([1]; 50 µg/kg) [%] | Metastasizing inhibition percent ([1]; 500 µg/kg) [%] | γ-interferon, U/ml (γ-interferon; 0 days after stress) [U/ml] | γ-interferon, U/ml (γ-interferon; 0.16 days after stress) [U/ml] | γ-interferon, U/ml (γ-interferon; 1 day after stress) [U/ml] | γ-interferon, U/ml (γ-interferon; 5 days after stress) [U/ml] | γ-interferon, U/ml (γ-interferon; 7 days after stress) [U/ml] | γ-interferon, U/ml (γ-interferon; 10 days after stress) [U/ml] | Percent of the reaction inhibition (mongrel male mice; 50 µg/kg) [%] | Reaction intensity, mm^2 (mongrel male mice; 50 µg/kg) | activity of NK-cells (NK-cells; 0.16 days after stress) | activity of NK-cells (NK-cells; 1 day after stress) | also measured |
| --- | --- | --- | --- | --- | --- | --- | --- | --- | --- | --- | --- | --- | --- | --- | --- | --- | --- | --- | --- | --- | --- |
| O=C(O)CCCC(=O)NCCc1c[nH]cn1 [compound III, N-GLUTARYLHISTAMINE] | 160 | 10 | 10 | 160 | 160 | 160 | 38.5 ±6.3**^1 | 30.1 ± 2.7**^1 | 26.0 | 42.0 | 80 | 80 | 32 | 32 | 320 | 80 | 42 | 51.6 ± 17.1*^2 mm^2 | 68.5 ± 0.99*^1,2 | 69.3 ± 1.81***^2 | Percent of the reaction inhibition (mongrel male mice; 150 µg/kg): 34.3%; Reaction intensity, mm^2 (mongrel male mice; 150 µg/kg): 53.7 ± 10.1*^1 mm^2; Percent of the reaction inhibition (mongrel male mice; 500 µg/kg): 30.0%; Reaction intensity, mm^2 (mongrel male mice; 500 µg/kg): 57.2 ± 12.6*^1 mm^2; activity of NK-cells (NK-cells; 5 days after stress): 79 ± 1.46; activity of NK-cells (NK-cells; 7 days after stress): 69.3 ± 4.85; activity of NK-cells (NK-cells; 10 days after stress): 77 ± 1.98; Bronchospasm (percent of the maximum value) (Male guinea pigs; 50 µg/kg intratracheally, 15 minutes prior to bronchospasm induction): 24.6 6.4* percent of the maximum value; Bronchospasm (percent of the maximum value) (Male guinea pigs; [2]): 12.0 4.0** percent of the maximum value |
| γ-L-glutamylhistamine [compound XLIV] | 160 | 10 | 80 | 80 | 100 | 140 | 42.4 ± 4.5 | 31.9 ± 3.8*^2 | 10.0 | 32.0 | 80 | 20 | 320 | 40 | 32 | 32 | 50 | 44.6 ± 11.6 mm^2 | 69.5 ± 1.32**^2 | 61.5 ± 2.64*^1,2 | activity of NK-cells (NK-cells; 5 days after stress): 71 ± 0.82; activity of NK-cells (NK-cells; 7 days after stress): 67.7 ± 3.95; activity of NK-cells (NK-cells; 10 days after stress): 77.5 ± 1.65; Bronchospasm (percent of the maximum value) (Male guinea pigs; [2]): 15.6 3.2** percent of the maximum value |
